Laboratory results taken from the supplement of paper PMC8149375.

Tests used:
Conditions in all cases: treatment: drug + dasatinib (fixed dose, not stated); 5 days
[1] = system: 786-O; assay: AUC of dose-response viability curve, drug + dasatinib, normalised to DMSO (arbitrary (AUC of normalised viability)); higher = less growth inhibition
Method: (§1)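 Primary HTS combination arm: 8 RCC cell lines treated with 8 doses (up to 10 uM) of each library drug plus a fixed dose of dasatinib (dose not stated) for 5 days; viability read by CellTiter-Glo and normalised to DMSO. GI50 was fitted with XLfit, AUC is the area under the dose-response curve, and minimum viability is the lowest fraction of DMSO viability across doses.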

[2] = system: 769-P; assay: as above
Method: as §1

[3] = system: TK-10; assay: as above
Method: as §1

[4] = system: A498; assay: as above
Method: as §1

[5] = system: UO-31; assay: as above
Method: as §1

[6] = system: CAKI-1; assay: as above
Method: as §1

[7] = system: ACHN; assay: as above
Method: as §1

[8] = system: SN12C; assay: as above
Method: as §1

[9] = system: 786-O; assay: minimum viability across doses, drug + dasatinib, relative to DMSO (fraction); higher = less growth inhibition
Method: as §1

[10] = system: 769-P; assay: as above
Method: as §1

[11] = system: TK-10; assay: as above
Method: as §1

[12] = system: A498; assay: as above
Method: as §1

[13] = system: UO-31; assay: as above
Method: as §1

[14] = system: CAKI-1; assay: as above
Method: as §1

[15] = system: ACHN; assay: as above
Method: as §1

[16] = system: SN12C; assay: as above
Method: as §1

[17] = system: 786-O; assay: GI50 of drug in presence of dasatinib; higher = less potent
Method: as §1

[18] = system: 769-P; assay: as above
Method: as §1

[19] = system: TK-10; assay: as above
Method: as §1

[20] = system: A498; assay: as above
Method: as §1

[21] = system: UO-31; assay: as above
Method: as §1

[22] = system: CAKI-1; assay: as above
Method: as §1

[23] = system: ACHN; assay: as above
Method: as §1

[24] = system: SN12C; assay: as above
Method: as §1

Compound	AUC of dose-response viability curve [1]	AUC of dose-response viability curve [2]	AUC of dose-response viability curve [3]	AUC of dose-response viability curve [4]	AUC of dose-response viability curve [5]	AUC of dose-response viability curve [6]	AUC of dose-response viability curve [7]	AUC of dose-response viability curve [8]	minimum viability across doses [9]	minimum viability across doses [10]	minimum viability across doses [11]	minimum viability across doses [12]	minimum viability across doses [13]	minimum viability across doses [14]	minimum viability across doses [15]	minimum viability across doses [16]	GI50 of drug [17] [µM]	GI50 of drug [18] [µM]	GI50 of drug [19] [µM]	GI50 of drug [20] [µM]	GI50 of drug [21] [µM]	GI50 of drug [22] [µM]	GI50 of drug [23] [µM]	GI50 of drug [24] [µM]
COc1cc(Nc2ncc(F)c(Nc3ccc4c(n3)N(COP(=O)([O-])[O-])C(=O)C(C)(C)O4)n2)cc(OC)c1OC.[Na+].[Na+] + Cc1nc(Nc2ncc(C(=O)Nc3c(C)cccc3Cl)s2)cc(N2CCN(CCO)CC2)n1 [dasatinib]	1.78	2.15	2.17	3.45	2.8	1.52	1.48	2.03	0.245	0.0654	0.304	0.671	0.0117	0.00358	0.0433	0.202	0.419	1.63	2.07	> 10	1.58	0.161	0.0687	0.793
CNC(=O)c1ccc(C)c(-n2c(C)cc(OCc3ccc(F)cc3F)c(Br)c2=O)c1 + Cc1nc(Nc2ncc(C(=O)Nc3c(C)cccc3Cl)s2)cc(N2CCN(CCO)CC2)n1 [dasatinib]	1.89	2.22	2.23	3.58	4.38	2.3	1.68	2.42	0.457	0.558	0.541	0.937	1.15	0.561	0.346	0.64	< 0.003	> 10	> 10	> 10	> 10	> 10	0.0906	> 10
CCc1cccc(CC)c1NC(=O)N1Cc2[nH]nc(NC(=O)c3ccc(N4CCN(C)CC4)cc3)c2C1 + Cc1nc(Nc2ncc(C(=O)Nc3c(C)cccc3Cl)s2)cc(N2CCN(CCO)CC2)n1 [dasatinib]	1.79	2.4	2.43	2.74	3.44	1.89	1.88	1.9	0.0687	0.565	0.319	0.406	0.31	0.0817	0.129	0.117	0.469	> 10	4.61	2.72	7.53	0.818	0.566	0.641
CN(c1ncccc1CNc1nc(Nc2ccc3c(c2)CC(=O)N3)ncc1C(F)(F)F)S(C)(=O)=O.O=S(=O)(O)c1ccccc1 + Cc1nc(Nc2ncc(C(=O)Nc3c(C)cccc3Cl)s2)cc(N2CCN(CCO)CC2)n1 [dasatinib]	1.6	1.93	2.28	3.75	3.91	1.98	1.66	2.16	0.00638	0.0401	0.15	0.015	0.0198	0.039	0.0114	0.012	0.222	1.56	3.29	3.51	3.01	0.966	0.0966	4.15
CC(=O)NCC(=O)N1[C@H]2CC[C@H]1c1cc(Nc3ncc(C(F)(F)F)c(NC4CCC4)n3)ccc12 + Cc1nc(Nc2ncc(C(=O)Nc3c(C)cccc3Cl)s2)cc(N2CCN(CCO)CC2)n1 [dasatinib]	0.86	1.61	1.83	2.34	2.3	1.11	1.17	1.47	0.0101	0.028	0.116	0.0199	0.0156	0.0773	0.0109	0.0154	0.0181	0.118	0.429	0.625	0.711	0.0306	0.0241	0.128
CNC(=O)c1nn(C)c2c1C(C)(C)Cc1cnc(Nc3ccc(N4CCN(C)CC4)cc3)nc1-2 + Cc1nc(Nc2ncc(C(=O)Nc3c(C)cccc3Cl)s2)cc(N2CCN(CCO)CC2)n1 [dasatinib]	1.35	1.77	1.63	3.23	2.02	1.11	1.03	1.71	0.00492	0.0274	0.189	0.0243	0.0113	0.0344	0.0123	0.0108	0.0355	0.245	0.137	3.47	0.279	0.0388	0.022	0.261
Oc1ccc(-c2nc(-c3ccc(F)cc3)c(-c3ccncc3)[nH]2)cc1 + Cc1nc(Nc2ncc(C(=O)Nc3c(C)cccc3Cl)s2)cc(N2CCN(CCO)CC2)n1 [dasatinib]	2.57	2.27	2.53	3.53	3.66	2.52	1.74	2.45	0.609	0.56	0.634	0.909	0.768	0.555	0.279	0.652	> 10	> 10	> 10	> 10	> 10	> 10	0.449	> 10
O=C1NCCc2[nH]c(-c3ccncc3)cc21 + Cc1nc(Nc2ncc(C(=O)Nc3c(C)cccc3Cl)s2)cc(N2CCN(CCO)CC2)n1 [dasatinib]	1.73	2.35	2.27	3.35	3.26	1.98	1.72	2.23	0.00389	0.463	0.185	0.0141	0.0107	0.0883	0.0122	0.0225	0.196	8.35	2.04	3.11	2.31	0.718	0.578	4.17
Cc1[nH]c(/C=C2\C(=O)Nc3ccc(S(=O)(=O)Cc4c(Cl)cccc4Cl)cc32)c(C)c1C(=O)N1CCC[C@@H]1CN1CCCC1 + Cc1nc(Nc2ncc(C(=O)Nc3c(C)cccc3Cl)s2)cc(N2CCN(CCO)CC2)n1 [dasatinib]	2.38	2.14	2.73	2.71	2.84	2.04	1.93	2.19	0.0107	0.00439	0.00273	0.0111	0.0078	0.00431	0.00119	0.00449	3.3	2.3	4.11	2.1	3.1	2.16	1.06	4.24
N#CC[C@H](C1CCCC1)n1cc(-c2ncnc3[nH]ccc23)cn1 + Cc1nc(Nc2ncc(C(=O)Nc3c(C)cccc3Cl)s2)cc(N2CCN(CCO)CC2)n1 [dasatinib]	2.44	2.39	2.61	3.44	3.91	2.21	1.97	2.5	0.536	0.557	0.686	0.911	0.486	0.331	0.504	0.689	> 10	> 10	> 10	> 10	> 10	4.27	> 10	> 10
CN(C)C1CCN(C(=O)c2ccc(NC(=O)Nc3ccc(-c4nc(N5CCOCC5)nc(N5CCOCC5)n4)cc3)cc2)CC1 + Cc1nc(Nc2ncc(C(=O)Nc3c(C)cccc3Cl)s2)cc(N2CCN(CCO)CC2)n1 [dasatinib]	1.23	2.27	1.91	1.37	3.11	1.74	1.62	1.04	0.00554	0.147	0.112	0.0743	0.117	0.0335	0.125	0.107	0.0498	2.87	0.306	0.0563	1.68	0.302	0.165	0.0192
COc1ccc(-c2cc3c(C)nc(N)nc3n([C@H]3CC[C@H](OCCO)CC3)c2=O)cn1 + Cc1nc(Nc2ncc(C(=O)Nc3c(C)cccc3Cl)s2)cc(N2CCN(CCO)CC2)n1 [dasatinib]	1.15	1.37	1.35	2.3	1.67	1.12	1	1.37	0.0021	0.0148	0.0233	0.161	0.00781	0.00992	0.0415	0.0663	0.0402	0.0946	0.0621	0.491	0.129	0.0417	0.0154	0.0794
CC(C)CC(=O)Nc1n[nH]c2c1CN(C(=O)C1CCN(C)CC1)C2(C)C + Cc1nc(Nc2ncc(C(=O)Nc3c(C)cccc3Cl)s2)cc(N2CCN(CCO)CC2)n1 [dasatinib]	1.21	2.32	2.43	2.59	3.13	1.99	1.11	1.7	0.0032	0.288	0.184	0.00865	0.0113	0.0614	0.0258	0.00656	0.0858	3.22	2.84	1.29	1.96	0.842	0.0189	0.248
OCc1ccc(-c2ccc(-c3ccc(CO)s3)o2)s1 + Cc1nc(Nc2ncc(C(=O)Nc3c(C)cccc3Cl)s2)cc(N2CCN(CCO)CC2)n1 [dasatinib]	1.04	0.925	0.849	2.69	3.23	0.396	1.2	1.8	0.0022	0.0624	0.0365	0.292	0.0841	0.00172	0.0471	0.0563	0.018	0.00916	0.015	1.7	0.917	0.00449	0.0696	0.219
